Results on one substance are retold here after patent publication US8110543B2, “Anti-invasive and anti-angiogenic compositions” (Angstrom Pharmaceuticals, Inc., priority 1997, dated 2012).

One series has as its system MDA-MB-231. The series is described as follows: In vitro proliferation, MDA-MB-231 cells. Type of series: cell-based, human. The procedure:
(§1) Å6 was also tested for its ability to inhibit the proliferation of cells other than endothelial cells in vitro.

Another series has as its target scuPA-suPAR (Homo sapiens, UniProt P00749). The series is described as follows: Activation of plasminogen by scuPA-suPAR with small chromogenic substrates. The format is biochemical.
The test system of another series is HeLa. The series is described as follows: In vitro proliferation, HeLa cells. The format is cell-based. The protocol: as §1
The test system of series [1] is bFGF-induced angiogenesis. As to the kind of experiment: Chick CAM angiogenesis assay. The format is in vivo. The procedure:
Major vessels were quantitated at this time.
A: Control CAM; B: CAM treated with 1.2 μg/disk of Å6.
Å6 was tested for its effect on bFGF-induced angiogenesis in a 7 day old chick CAM assay.

For series [2] the following is noted: mouse, in vivo, iv, 37.5 mg/kg. The procedure:
Protein binding studies are presently underway.
Pharmacokinetic analysis was carried out by Gilbert Lam, MicroConstants.

The subject of series [3] is MDA-MB-231 human breast cancer cells. As to the kind of experiment: MDA-MB-231 GFP xenograft model. On the set-up: species or system mice. The following applies: mouse, in vivo.
Another series can be described thus: Acute toxicity in mice. Type of series: in vivo. To be noted: observed for 3 days. The procedure:
Acute toxicity was evaluated at three different doses of Å6 (1500 mg/kg, 500 mg/kg and 250 mg/kg). Mice (n=6) were infused (i.v,) with a bolus of Å6 over 5-10 minutes and observed for 3 days.

The target in the next series is scuPA-suPAR complex (Homo sapiens, UniProt P00749). The series is described as follows: Clot lysis assay ([125I] fibrin clots). The following applies: 30 minutes after initiation of clot lysis (FIG. 3). Type of series: biochemical.
For series [4], the system named is MDA-MB-231 human breast cancer cells. The series is described as follows: MDA-MB-231 GFP xenograft model. The format is in vivo, mice. The procedure:
Nude mice (n=5 per group) were challenged with 2×10^5 tumor cells co-injected into the mammary fat pad of the mice with Matrigel. […] Control animals received vehicle (PBS) only.
These cells were first transfected with green fluorescent protein (GFP) to simplify the detection and visualization of metastases.
The tumor cells (5×10^5) were suspended in 0.1 mL of Matrigel and injected into the mammary fat pad of female BALB/c nu/nu mice. Treatment (75 mg/kg/day) was initiated when the tumors were palpable (10 mm^3, approximately 4 weeks after inoculation of tumor cells) and continued for 5 weeks. Tumor volumes were determined twice per week using caliper measurements. The animals were euthanized at the end of the 5th week of treatment, necropsied and examined for macroscopic metastases. Sections prepared from LNs, lung, liver, spleen and kidney were analyzed for microscopic dissemination of tumor cells using fluorescence microscopy to detect GFP-positive foci.
Macroscopic metastases were enumerated and their size measured with calipers (Table I below). Microscopic dissemination of tumor cells was quantitated by counting GFP-positive foci in representative sections from lung, liver, kidney and spleen.
Macrometastases were determined by excising involved LNs and determining the tumor volume by caliper measurement. Microscopic tumor foci were quantitated by sectioning and fixing target organs, then visualizing GFP-labeled cells using fluorescence microscopy (at 200× enlargement). The number of disseminated tumor foci represents the average of 5 fields per section from 3 different sections per organ.

For the next series, the system named is 3LL. As to the kind of experiment: 3LL metastasis model, related peptides. Also on record: species or system mice. The following applies: mouse, in vivo. From the text: This model has been utilized by a number of investigators. See, for example, Gorelik, E. et al., J. Nat'l. Canc. Inst. 65:1257-1264 (1980); Gorelik, E. et al., Rec. Results Canc Res. 75:20-28 (1980); Isakov, N. et al., Invasion Metas. 2:12-32 (1982); Talmadge J. E. et al., J. Nat'l. Canc. Inst. 69:975-980 (1982); Hilgard, P. et al, Br. J. Cancer 35:78-86 (1977)). Test mice are male C57BL/6 mice, 2-3 months old. Following sc, im, or intra-footpad implantation, this tumor produces metastases, preferentially in the lungs. With some lines of the tumor, the primary tumor exerts anti-metastatic effects and must first be excised before study of the metastatic phase (see also U.S. Pat. No. 5,639,725).
Single-cell suspensions are prepared from solid tumors by treating minced tumor tissue with a solution of 0.3% trypsin. Cells are washed 3 times with PBS (pH 7.4) and suspended in PBS. Viability of the 3LL cells prepared in this way is generally about 95-99% (by trypan blue dye exclusion). Viable tumor cells (3×10^4-5×10^6) suspended in 0.05 ml PBS are injected subcutaneously, either in the dorsal region or into one hind foot pad of C57BL/6 mice. Visible tumors appear after 3-4 days after dorsal sc injection of 10^6 cells. The day of tumor appearance and the diameters of established tumors are measured by caliper every two days.
The treatment is given as one or two doses of peptide or derivative, per week. In another embodiment, the peptide is delivered by osmotic minipump.
Lungs are removed and weighed. Lungs are fixed in Bouin's solution and the number of visible metastases is recorded. The diameters of the metastases are also measured using a binocular stereoscope equipped with a micrometer-containing ocular under 8× magnification. On the basis of the recorded diameters, it is possible to calculate the volume of each metastasis. To determine the total volume of metastases per lung, the mean number of visible metastases is multiplied by the mean volume of metastases. To further determine metastatic growth, it is possible to measure incorporation of ^125IdUrd into lung cells (Thakur, M. L. et al., J. Lab. Clin. Med. 89:217-228 (1977). Ten days following tumor amputation, 25 μg of fluorodeoxyuridine is inoculated into the peritoneums of tumor-bearing (and, if used, tumor-resected mice). After 30 min, mice are given 1 μCi of ^125IdUrd (iododeoxyuridine). One day later, lungs and spleens are removed and weighed, and a degree of ^125IdUrd incorporation is measured using a gamma counter.
In addition to Å6, other related peptide compounds described above are tested for efficacy in vivo in the 3LL model (as provided above) as well as the PC-3 model. PC-3 cells transfected with the gene encoding the enzyme chloramphenicol acetyl-transferase (CAT) are inoculated into mice i.v. at doses of 1×10^6 cells per mouse. These mice are implanted with a minipump, as above, which dispenses 100 mg/kg/day of the peptide or vehicle over a period of 14 or 21 days. At termination of treatment, the animals are euthanized and the tumor marker probe is assayed in regional lymph nodes, femurs, lungs, and brain.

[5] abbreviates: average of 5 fields per section from 3 sections.

Method for scuPA-suPAR complex: Fibrin clots were formed by supplementing plasma with [^125I] fibrinogen. Clotting was initiated by adding thrombin and calcium to the plasma mixture. Clots were washed to remove any free radioactivity, plasminogen and the activator to be tested were added to the clot and the release of [^125I] fibrin degradation products was monitored. The data presented in this figure is at 30 minutes after initiation of clot lysis. scuPA-suPAR: dose response with Å6 on clot lysis by scuPA-suPAR complex; scuPA: dose response on clot lysis by scuPA alone; scuPA/suPAR+scrambled pep: dose response with a scrambled version of Å6 (Ac-[sequence]-Am) (SEQ ID NO: 10).

What is called clearance is a measure of how efficiently the substance is removed, as volume per time. Read a low clearance as a low capacity for elimination. What is called half-life is the time in which the quantity being followed falls by half. Higher therefore signals slow loss. One may read the solubility as the dissolved amount per volume that the medium holds. Consider “Ac-KPSSPPEE-NH2 [Å6, CH3CO-Lys-Pro-Ser-Ser-Pro-Pro-Glu-Glu-NH2]”, for which the solubility is greater than 100 mg/mL. The “anti-proliferative effect, MDA-MB-231” value in the series with MDA-MB-231 was “No anti-proliferative effects”. Further, the “effect on activation of plasminogen by scuPA-suPAR” value at scuPA-suPAR is “did not affect”. In addition, in the series with HeLa, the “anti-proliferative effect, HeLa” value was “No anti-proliferative effects”. In addition, in [1] (7 day old chick CAM, 4 days), the “bFGF-induced angiogenesis (major vessel formation) in CAM” value was “inhibits angiogenesis”. Besides, the “branching morphogenesis in CAM” value in [1] (qualitative, stereomicroscopic images) was “inhibited branching morphogenesis”. In series [2], this substance gave a clearance of 33.3 mL/min/kg and a half-life of 12 min. The “efficacy on tumors staged to 50-100 mm^3 prior to initiating treatment” value in series [3] is “ineffective”. The overt toxicity result in the series “Acute toxicity in mice” (1500, 500 and 250 mg/kg i.v. bolus over 5-10 minutes) was “No evidence for overt toxicity”. The “survival after acute dosing” value in “Acute toxicity in mice” (1500, 500 and 250 mg/kg i.v. bolus) was “all the animals survived”. At scuPA-suPAR complex, the “scuPA-suPAR mediated clot lysis” value was “inhibits”. Also, the “growth of primary challenge tumors” value in series [4] (IP, 1 mg bid, started when tumor nodules palpable (FIG. 15)) was “inhibits the growth”. Further, in [4] (setting [5]), the “Disseminated GFP-positive Tumor Foci, Liver” value is 3.11 ± 0.14; the “Disseminated GFP-positive Tumor Foci, Lung” value is 2.09 ± 0.30; the “Disseminated GFP-positive Tumor Foci, Spleen” value is reported as 28.30 ± 2.80. In series [4] (end of 5th week of treatment), the “Macroscopic Metastases, Lungs, Number” value stood at 1 ± 0; the “Macroscopic Metastases, Lymph Nodes, Number” value worked out at 1.2 ± 0.2; the “Macroscopic Metastases, Lymph Nodes, Size” value is 7 ± 3 mm^3. Moreover, the “single foci versus larger colonies in organ sections” value in series [4] (liver and lungs) is given as “greater number of single foci”. Also, in [4] (mouse, in vivo), the “Factor VIII-positive hot spots in tumor sections” value is reported as “decrease” and the “TUNEL-positive foci in tumor sections” value was “significant increase”. The “metastasis, 3LL model” value with 3LL is “markedly inhibited”.
